Data taken from patent publication US12145933B2, “Hemi (L)-tartrate forms of 3-({5-chloro-1-[3-(methylsulfonyl)propyl]-1H-indol-2-yl}methyl)-1-(2,2,2-trifluoroethy)-1,3-dihydro-2H-imidazo[4,5-C]pyridin-2-one and pharmaceutical compositions comprising the same” (Janssen Sciences Ireland Unlimited Company, priority 2020, dated 2024).
Converted amounts (≈) assume the structure as drawn. “And” between values parts separate entries of the source, which are not always exact repeats. Equal entries are not always repeated. “Also recorded” adds a separate entry of the source. Where two headings read alike, the source gives them in different places. Values belong to the compound of their own block, whether it stands above or below them.

Experiments:
Type in all cases: physicochemical
[1] = Intrinsic dissolution rate (IDR), μDISS Profiler; conditions: for IDR: 37.0 ± 0.5° C., 100 rpm
Description: The intrinsic dissolution rate (IDR) describes how fast a compound is released from its solid-state form into solution. The intrinsic dissolution rate is defined as the rate of dissolution of a pure active pharmaceutical ingredient when surface area, stirring speed, pH and ionic-strength of the dissolution medium are kept constant. Thus, it is measured as the release of API from a flat and well-defined surface area into an aqueous solution at a given pH value. By exposing the surface area of a material to an appropriate dissolution medium while maintaining constant temperature, stirring rate, and pH, the intrinsic dissolution rate can be determined. Typically the intrinsic dissolution is expressed in terms of mg per minute per cm^2.
Intrinsic Dissolution Method Parameters:
Pellet Compression Parameters

[2] = Kinetic solubility in biorelevant media (FaSSIF, FeSSIF) with and without HPMC E5; conditions: for solubility kinetic at 30 min / solubility kinetic at 60 min / solubility kinetic at 120 min: thermodynamic from solid, as μg rilematovir/mL; for solubility kinetic at 30 min: read-out: kinetic solubility, concentration at 30 minutes; for solubility kinetic at 60 min: read-out: kinetic solubility, concentration at 60 minutes; for solubility kinetic at 120 min: read-out: kinetic solubility, concentration at 120 minutes
Description: The kinetic solubility of rilematovir and the hemi (L)-tartrate form of rilematovir in different biorelevant medium (FaSSIF and FeSSIF) in the presence or absence of HPMC E5 was analysed.
An excess amount of rilematovir or the hemi (L)-tartrate form of rilematovir was added to biorelevant medium (approximately 5 mg solid/mL medium was used).
The media were stirred at 150 rpm at a temperature of 37° C. Time-dependent measurements were performed by removing 10 mL aliquots after 30 minutes, 1 hour and 2 hours. Undissolved solid material in the aliquot was removed using a Whatman SPARTAN RC syringe filter (diameter: 30 mm; pore size: 0.2 μm). Afterwards, a suitable dilution was made in NMP/water 30/70; v/v to avoid precipitation. The concentration of rilematovir, or the hemi (L)-tartrate form of rilematovir, in solution was determined using UPLC-UV.

[3] = Long term storage of liquid aqueous suspension (disproportionation, polymorph conversion)
Description: A liquid aqueous suspension comprising Form 1 of the hemi (L)-tartrate form of rilematovir as described in Examples 10, 11, 14 or 15 was stored in a sealed glass vial at a temperature of 30° C., 40° C., and 50° C. Over a period of 8 months samples were taken and analysed (e.g. by XPRD or solid state ^19F-NMR spectroscopy).
FIG. 6 is the solid state ^19F-NMR spectrum of Form 1 having peaks at −70.004 ppm and −73.248 ppm. FIG. 7 is the solid state ^19F-NMR spectrum of Form 3 having a peak at −70.122 ppm.

[4] = Equilibrium (thermodynamic) solubility in fed state human intestinal fluids; conditions: for solubility Conc / solubility at 24 h: Fed HR pool human intestinal fluids, 37° C., 24 hours; for solubility at 24 h: human, 37 °C, plasma or biological fluid, thermodynamic from solid
Description: Determination of the equilibrium solubility of rilematovir in its free base form and its hemi (L)-tartrate form in fed state human intestinal fluids.
The thermodynamic solubility of rilematovir and the hemi (L)-tartrate form of rilematovir was determined using human intestinal fluids obtained from human volunteers in fed state. The pools of human intestinal fluids were prepared from individual intestinal aspirates collected among healthy volunteers under fed state conditions. Fed HR (high responders) pools were build up from duodenal samples in the fed state from volunteers with a clear postprandial bile salt increase.
A small magnetic stirrer bar (about 5 mm in length) and 300 μl of the respective human intestinal fluids at 37° C. were added to the Eppendorf tubes containing an excess of test compound. The mixtures were vortexed for a few seconds and placed on a magnetic stirrer plate (100 rpm) at 37° C.
After 24 hours, the Eppendorf tubes were centrifuged for 5 minutes at 12000 rpm (to separate dissolved from non-dissolved material). 10 µl of the supernatant was diluted into 100 μl methanol), well mixed and centrifuged for 1 minute to separate precipitated protein fraction. The test compound was quantified in the resulting supernatant using UPLC-UV quantification.
The pH was measured at the end of the experiment for each condition (pHend in Table 1).

[5] = aqueous with cosolvent or surfactant or cyclodextrin, FaSSIF pH 6.5, HPMC E5 1.39 mg/mL, 37° C.
[6] = aqueous with cosolvent or surfactant or cyclodextrin, FeSSIF pH 5.0, HPMC E5 1.39 mg/mL, 37° C.
[7] = FaSSIF pH 6.5, no HPMC E5, 37° C.
[8] = FeSSIF pH 5.0, no HPMC E5, 37° C.
[9] = FaSSIF with HPMC E5, aqueous with cosolvent or surfactant or cyclodextrin, FaSSIF pH 6.5, HPMC E5 1.39 mg/mL, 37° C.
[10] = FeSSIF with HPMC E5, aqueous with cosolvent or surfactant or cyclodextrin, FeSSIF pH 5.0, HPMC E5 1.39 mg/mL, 37° C.

IDR ([1]; Medium: 0.01N HCl): 147 μg/min/cm^2
IDR ([1]; Medium: Blank FaSSIF): 5.45 μg/min/cm^2
IDR ([1]; Medium: FASSIF): 2.10 μg/min/cm^2
solubility kinetic at 30 min [2, 5]: 108 µg/mL
solubility kinetic at 60 min [2, 5]: 93.1 µg/mL
solubility kinetic at 120 min [2, 5]: 75.9 µg/mL
solubility kinetic at 30 min [2, 6]: 1010 µg/mL
solubility kinetic at 60 min [2, 6]: 853 µg/mL
solubility kinetic at 120 min [2, 6]: 689 µg/mL
solubility kinetic at 30 min [2, 7]: 4.4 µg/mL
solubility kinetic at 60 min [2, 7]: 3.4 µg/mL
solubility kinetic at 120 min [2, 7]: 3 µg/mL
solubility kinetic at 30 min [2, 8]: 82.8 µg/mL
solubility kinetic at 60 min [2, 8]: 67.1 µg/mL
solubility kinetic at 120 min [2, 8]: 58.6 µg/mL
polymorph conversion in liquid aqueous suspension ([3]; storage of aqueous suspension over time, XRPD and solid state 19F-NMR): over time Form 1 converts into Form 3
solubility Conc ([4]; single determinations, listed as hemi tartrate form): 122.93 µg/mL and 126.92 µg/mL
solubility in fed state human intestinal fluids relative to free base form ([4]; fed state human intestinal fluids): more than three times higher
solubility at 24 h ([4]; average of three, read-out: solubility Average): 117 µg/mL
solubility at 24 h ([4]; single determinations, read-out: solubility Conc): 102 µg/mL
Structure (SMILES): CS(=O)(=O)CCCn1c(Cn2c(=O)n(CC(F)(F)F)c3ccncc32)cc2cc(Cl)ccc21.O=C(O)C(O)C(O)C(=O)O [hemi (L)-tartrate form of rilematovir]
intrinsic dissolution rate (IDR) compared with free base form ([1]; three biorelevant media): higher than the free base form of rilematovir
kinetic solubility relative to free base ([2]; biorelevant media, absence of the suspending agent HPMC): three (in FaSSIF) to six (in FeSSIF) times higher
disproportionation in liquid aqueous suspension ([3]; sealed glass vial, 30° C., 40° C., 50° C., 8 months, XRPD or solid state 19F-NMR): does not disproportionate; also recorded: no disproportionation has been observed

IDR ([1]; Medium: 0.01N HCl): 8.98 μg/min/cm^2
IDR ([1]; Medium: Blank FaSSIF): 3.06 μg/min/cm^2
IDR ([1]; Medium: FASSIF): <1 μg/min/cm^2
solubility kinetic at 30 min [2, 9]: 1.2 µg/mL (≈ 2.4 µM)
solubility kinetic at 60 min [2, 9]: 1.3 µg/mL (≈ 2.6 µM)
solubility kinetic at 120 min [2, 9]: 1.5 µg/mL (≈ 2.99 µM)
solubility kinetic at 30 min [2, 10]: 12.3 µg/mL (≈ 24.6 µM)
solubility kinetic at 60 min [2, 10]: 13.4 µg/mL (≈ 26.8 µM)
solubility kinetic at 120 min [2, 10]: 13.9 µg/mL (≈ 27.7 µM)
solubility kinetic at 30 min [2, 7]: 1.1 µg/mL (≈ 2.2 µM)
solubility kinetic at 60 min [2, 7]: 1.1 µg/mL (≈ 2.2 µM)
solubility kinetic at 120 min [2, 7]: 1.2 µg/mL (≈ 2.4 µM)
solubility kinetic at 30 min [2, 8]: 12.5 µg/mL (≈ 25 µM)
solubility kinetic at 60 min [2, 8]: 13.2 µg/mL (≈ 26.4 µM)
solubility kinetic at 120 min [2, 8]: 13.7 µg/mL (≈ 27.3 µM)
solubility Conc ([4]; single determinations, listed as free base): 36.80 µg/mL and 32.50 µg/mL
solubility at 24 h ([4]; fed state human intestinal fluids (Fed HR pool), average of three, read-out: solubility Average): 34.4 µg/mL (≈ 68.7 µM)
solubility at 24 h ([4]; fed state human intestinal fluids (Fed HR pool), single determinations, read-out: solubility Conc): 34 µg/mL (≈ 67.8 µM)
Structure (SMILES): CS(=O)(=O)CCCn1c(Cn2c(=O)n(CC(F)(F)F)c3ccncc32)cc2cc(Cl)ccc21 [rilematovir, 3-({5-chloro-1-[3-(methylsulfonyl)propyl]-1H-indol-2-yl}methyl)-1-(2,2,2-trifluoroethyl)-1,3-dihydro-2H-imidazo[4,5-c]pyridin-2-one]

IDR ([1]; Medium: 0.01N HCl): 32.77 μg/min/cm^2
IDR ([1]; Medium: Blank FaSSIF): 1.62 μg/min/cm^2
IDR ([1]; Medium: FASSIF): 1.18 μg/min/cm^2
Structure (SMILES): CS(=O)(=O)CCCn1c(Cn2c(=O)n(CC(F)(F)F)c3ccncc32)cc2cc(Cl)ccc21.CS(=O)(=O)CCCn1c(Cn2c(=O)n(CC(F)(F)F)c3ccncc32)cc2cc(Cl)ccc21.O=C(O)C(=O)O [hemi oxalic co-crystal]
